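48-hour exposure; five concentrations; linearly interpolated endpoints. GI50 is the concentration that inhibits growth by half. TGI: total growth inhibition.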
Assays:
Assay in all cases: NCI anticancer screen, dose series, 48 h
KM12 colon = system: KM12 colon
HS 578T breast = system: HS 578T breast
OVCAR-8 ovarian = system: OVCAR-8 ovarian
SN12C renal = system: SN12C renal
OVCAR-3 ovarian = system: OVCAR-3 ovarian
SR leukemia = system: SR leukemia
HCT-116 colon = system: HCT-116 colon
LOX IMVI melanoma = system: LOX IMVI melanoma
OVCAR-5 ovarian = system: OVCAR-5 ovarian
NCI-H23 lung = system: NCI-H23 lung
CAKI-1 renal = system: CAKI-1 renal
SK-MEL-2 melanoma = system: SK-MEL-2 melanoma
MCF7 breast = system: MCF7 breast
HCC-2998 colon = system: HCC-2998 colon
SNB-19 CNS = system: SNB-19 CNS
UO-31 renal = system: UO-31 renal
EKVX NSCLC = system: EKVX NSCLC
MDA-MB-435 = system: MDA-MB-435
ACHN renal = system: ACHN renal
K-562 leukemia = system: K-562 leukemia
UACC-62 melanoma = system: UACC-62 melanoma
IGROV1 ovarian = system: IGROV1 ovarian
HOP-62 NSCLC = system: HOP-62 NSCLC
RXF 393 renal = system: RXF 393 renal
U251 CNS = system: U251 CNS
NCI-H460 lung = system: NCI-H460 lung
SF-295 CNS = system: SF-295 CNS
PC-3 prostate = system: PC-3 prostate
SK-MEL-5 melanoma = system: SK-MEL-5 melanoma
M14 melanoma = system: M14 melanoma
CCRF-CEM leukemia = system: CCRF-CEM leukemia
TK-10 renal = system: TK-10 renal
SK-MEL-28 melanoma = system: SK-MEL-28 melanoma
NCI-H226 lung = system: NCI-H226 lung
COLO 205 colon = system: COLO 205 colon
SK-OV-3 ovarian = system: SK-OV-3 ovarian
SNB-75 CNS = system: SNB-75 CNS
T-47D breast = system: T-47D breast
MALME-3M melanoma = system: MALME-3M melanoma
DU-145 prostate = system: DU-145 prostate
NCI/ADR-RES ovarian = system: NCI/ADR-RES ovarian
SF-268 CNS = system: SF-268 CNS
786-0 renal = system: 786-0 renal
RPMI-8226 leukemia = system: RPMI-8226 leukemia
OVCAR-4 ovarian = system: OVCAR-4 ovarian
A549 NSCLC = system: A549 NSCLC
HCT-15 colon = system: HCT-15 colon
UACC-257 melanoma = system: UACC-257 melanoma
SW-620 colon = system: SW-620 colon
MDA-MB-231 breast = system: MDA-MB-231 breast
MOLT-4 leukemia = system: MOLT-4 leukemia
HT29 colon = system: HT29 colon
BT-549 breast = system: BT-549 breast
NCI-H522 lung = system: NCI-H522 lung
SF-539 CNS = system: SF-539 CNS
HL-60(TB) leukemia = system: HL-60(TB) leukemia
A498 renal = system: A498 renal
HOP-92 NSCLC = system: HOP-92 NSCLC

## COc1ccc(S(=O)Cc2cc(OC)c(OC)c(OC)c2)cc1 (configuration not stated)
KM12 colon
  TGI: > 100 µM
HS 578T breast
  TGI: > 100 µM
OVCAR-8 ovarian
  TGI: > 100 µM
SN12C renal
  TGI: > 100 µM
OVCAR-3 ovarian
  TGI: > 100 µM
SR leukemia
  TGI: > 100 µM
HCT-116 colon
  TGI: > 100 µM
LOX IMVI melanoma
  TGI: > 100 µM
OVCAR-5 ovarian
  TGI: > 100 µM
NCI-H23 lung
  TGI: > 100 µM
CAKI-1 renal
  TGI: > 100 µM
SK-MEL-2 melanoma
  TGI: > 100 µM
MCF7 breast
  TGI: > 100 µM
HCC-2998 colon
  TGI: > 100 µM
SNB-19 CNS
  TGI: > 100 µM
UO-31 renal
  TGI: > 100 µM
EKVX NSCLC
  TGI: > 100 µM
MDA-MB-435
  TGI: 35.7 µM
ACHN renal
  TGI: > 100 µM
K-562 leukemia
  TGI: > 100 µM
UACC-62 melanoma
  TGI: > 100 µM
IGROV1 ovarian
  TGI: > 100 µM
HOP-62 NSCLC
  TGI: > 100 µM
RXF 393 renal
  TGI: > 100 µM
U251 CNS
  TGI: > 100 µM
NCI-H460 lung
  TGI: > 100 µM
SF-295 CNS
  TGI: > 100 µM
PC-3 prostate
  TGI: > 100 µM
SK-MEL-5 melanoma
  TGI: > 100 µM
M14 melanoma
  TGI: > 100 µM
CCRF-CEM leukemia
  TGI: > 100 µM
TK-10 renal
  TGI: > 100 µM
SK-MEL-28 melanoma
  TGI: > 100 µM
NCI-H226 lung
  TGI: > 100 µM
COLO 205 colon
  TGI: > 100 µM
SK-OV-3 ovarian
  TGI: > 100 µM
SNB-75 CNS
  TGI: > 100 µM
T-47D breast
  TGI: > 100 µM
MALME-3M melanoma
  TGI: > 100 µM
DU-145 prostate
  TGI: > 100 µM
NCI/ADR-RES ovarian
  TGI: > 100 µM
SF-268 CNS
  TGI: > 100 µM
786-0 renal
  TGI: > 100 µM
RPMI-8226 leukemia
  TGI: > 100 µM
OVCAR-4 ovarian
  TGI: > 100 µM
A549 NSCLC
  TGI: > 100 µM
HCT-15 colon
  TGI: > 100 µM
UACC-257 melanoma
  TGI: > 100 µM
SW-620 colon
  TGI: > 100 µM
MDA-MB-231 breast
  TGI: > 100 µM
MOLT-4 leukemia
  TGI: > 100 µM
HT29 colon
  TGI: > 100 µM
BT-549 breast
  TGI: > 100 µM
NCI-H522 lung
  TGI: > 100 µM
SF-539 CNS
  TGI: > 100 µM

## CCn1c2ccccc2c2cc(/C=C(/C#N)C(N)=S)ccc21
HL-60(TB) leukemia
  GI50: 74.4 µM
  TGI: > 100 µM
KM12 colon
  GI50: 15.2 µM
  TGI: 38.5 µM
HS 578T breast
  GI50: 2.21 µM
  TGI: 9.29 µM
OVCAR-8 ovarian
  GI50: 20.5 µM
  TGI: 56.4 µM
SN12C renal
  GI50: 11.8 µM
  TGI: 29.9 µM
OVCAR-3 ovarian
  GI50: 1.73 µM
  TGI: 18.2 µM
HCT-116 colon
  GI50: 5.79 µM
  TGI: 20.9 µM
LOX IMVI melanoma
  GI50: 13 µM
  TGI: 26.1 µM
OVCAR-5 ovarian
  GI50: 0.0581 µM
  TGI: 0.57 µM
NCI-H23 lung
  GI50: 14.8 µM
  TGI: 35.4 µM
CAKI-1 renal
  GI50: 1.12 µM
  TGI: > 35.4 µM
SK-MEL-2 melanoma
  GI50: 31.3 µM
  TGI: > 100 µM
MCF7 breast
  GI50: 0.271 µM
  TGI: 17.8 µM
HCC-2998 colon
  GI50: 2.88 µM
  TGI: 9 µM
SNB-19 CNS
  GI50: 35.2 µM
  TGI: > 75.6 µM
UO-31 renal
  GI50: 20.4 µM
  TGI: > 60.6 µM
EKVX NSCLC
  GI50: 17.7 µM
  TGI: > 58.4 µM
MDA-MB-435
  GI50: 6.06 µM
  TGI: 29.6 µM
ACHN renal
  GI50: 19.6 µM
  TGI: 64 µM
K-562 leukemia
  GI50: 12.8 µM
  TGI: > 100 µM
UACC-62 melanoma
  GI50: 0.219 µM
  TGI: 1.51 µM
IGROV1 ovarian
  GI50: 0.619 µM
  TGI: 23.2 µM
HOP-62 NSCLC
  GI50: 1.21 µM
  TGI: 17.7 µM
RXF 393 renal
  GI50: 16.5 µM
  TGI: 39 µM
U251 CNS
  GI50: 4.85 µM
  TGI: 23.5 µM
NCI-H460 lung
  GI50: 0.443 µM
  TGI: 12.2 µM
SF-295 CNS
  GI50: 4.64 µM
  TGI: 24.2 µM
PC-3 prostate
  GI50: 18.3 µM
  TGI: > 59.4 µM
SK-MEL-5 melanoma
  GI50: 7.26 µM
  TGI: 20.2 µM
A498 renal
  GI50: 0.026 µM
  TGI: 0.115 µM
M14 melanoma
  GI50: 18.2 µM
  TGI: 38.8 µM
HOP-92 NSCLC
  GI50: 14.6 µM
  TGI: 46.9 µM
CCRF-CEM leukemia
  GI50: 23.4 µM
  TGI: > 100 µM
TK-10 renal
  GI50: 0.216 µM
  TGI: 1.82 µM
SK-MEL-28 melanoma
  GI50: 17.7 µM
  TGI: 47.2 µM
NCI-H226 lung
  TGI: 0.0236 µM
COLO 205 colon
  GI50: 13.2 µM
  TGI: > 45.7 µM
SK-OV-3 ovarian
  GI50: 36.7 µM
  TGI: > 62.1 µM
SNB-75 CNS
  GI50: 18.8 µM
  TGI: 46.1 µM
T-47D breast
  GI50: 4.84 µM
MALME-3M melanoma
  GI50: 6.19 µM
  TGI: 48.5 µM
DU-145 prostate
  GI50: 16.1 µM
  TGI: 63.6 µM
NCI/ADR-RES ovarian
  GI50: 18 µM
  TGI: 38.5 µM
SF-268 CNS
  GI50: 16.3 µM
  TGI: 40.6 µM
786-0 renal
  GI50: 16.1 µM
  TGI: 39.4 µM
RPMI-8226 leukemia
  GI50: 35.4 µM
  TGI: > 100 µM
OVCAR-4 ovarian
  GI50: 1.43 µM
  TGI: 9.92 µM
A549 NSCLC
  GI50: 17.5 µM
  TGI: > 87.4 µM
HCT-15 colon
  GI50: 18.7 µM
  TGI: 51.6 µM
UACC-257 melanoma
  GI50: 3.11 µM
  TGI: > 21.4 µM
SW-620 colon
  GI50: 9.06 µM
  TGI: 25.1 µM
MDA-MB-231 breast
  GI50: 12.1 µM
  TGI: 30.8 µM
MOLT-4 leukemia
  GI50: 12.5 µM
  TGI: 58.6 µM
HT29 colon
  GI50: 10.9 µM
  TGI: > 42.7 µM
BT-549 breast
  GI50: 18.6 µM
  TGI: 36.6 µM
NCI-H522 lung
  GI50: 26.9 µM
  TGI: > 68.4 µM
SF-539 CNS
  GI50: 14.2 µM
  TGI: 27.4 µM
